Article PMC4102417 (PLoS Neglected Tropical Diseases, 2014)
“And” between values parts separate entries of the source, which are not always exact repeats. Equal values may be shown once. Where a name gives a salt, the structure may show the parent alone. Read-outs that look alike come from different tables or passages of the source.

Experiments:
[1] = tested on: T. cruzi (Tulahuen strain); test: microbe, parasite or virus in culture; assay type: cell-based, Trypanosoma cruzi; details: for activity at 10 µM / EC50: Trypanosoma cruzi, TULAHUEN, Fibroblast; for activity at 10 µM: 120 h, read-out: T. cruzi % growth @ 10 uM (Amastigotes); for EC50: read-out: T. cruzi EC50
How it was run: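 Tulahuen parasites expressing beta-galactosidase were added (1×10^4 trypomastigotes/well) to 3T3 fibroblasts plated 24 h earlier, 4 h before compound (10 µM final).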

[2] = tested on: 3T3 fibroblast cells; test: cells; assay type: cell-based, murine; details: for activity at 10 µM: Mus musculus, NIH3T3, 72 h, read-out: Mammalian (3T3) cell % growth at 10 uM

Molecule	activity at 10 µM ([1]; 10 uM, Table S2)	activity at 10 µM ([2]; 10 uM, Table S2)	also measured
COC(=O)CC1C(C)(C)C(OC(C)=O)C2C(OC(C)=O)C34OC2(O)C1(C)C3CCC1(C)C4=CC(=O)OC1c1ccoc1 (stereo not drawn) [[…], methyl 2-[14,18-bis(acetyloxy)-6-(furan-3-yl)-16-hydroxy-7,11,13,13-tetramethyl-4-oxo-5,17-dioxapentacyclo[13.2.1.0^{1,10}.0^{2,7}.0^{11,16}]octadec-2-en-12-yl]acetate]	7.2%	89.7%	
CC1CCC2C(C)C(=O)OC3OC4(C)CCC1C32OO4 (stereo not drawn) [ARTEMISININ, 1,5,9-trimethyl-11,14,15,16-tetraoxatetracyclo[10.3.1.0^{4,13}.0^{8,13}]hexadecan-10-one]	17.5%	77.6%	EC50 ([1]; Table S2, amastigotes): 5020 nM
Clc1ccc(COC(Cn2ccnc2)c2ccc(Cl)cc2Cl)c(Cl)c1 (stereo not drawn) [Miconazole, 1-[2-(2,4-dichlorophenyl)-2-[(2,4-dichlorophenyl)methoxy]ethyl]-1H-imidazole]	0.4%	100%	
C=C1C(=O)OC2CC1C(OC(C)=O)CC(C)=CCCC(C)=CCCC2(C)O (stereo not drawn) [CRASSIN ACETATE, 12-hydroxy-4,8,12-trimethyl-16-methylidene-15-oxo-14-oxabicyclo[11.3.1]heptadeca-4,8-dien-2-yl acetate]			activity at 10 µM ([1]; 10 uM, Table S1): 0.2%; activity at 10 µM ([2]; 10 uM, Table S1): 2.5%
CC12CCC3C(CCC4CC(O)CCC43C)C1CCC2=O (stereo not drawn) [EPIANDROSTERONE, 5-hydroxy-2,15-dimethyltetracyclo[8.7.0.0^{2,7}.0^{11,15}]heptadecan-14-one]			activity at 10 µM [1]: 18.8%; activity at 10 µM [2]: 100%
COc1ccc(CCN2CCC(Nc3nc4ccccc4n3Cc3ccc(F)cc3)CC2)cc1 [ASTEMIZOLE, 1-[(4-fluorophenyl)methyl]-N-{1-[2-(4-methoxyphenyl)ethyl]piperidin-4-yl}-1H-1,3-benzodiazol-2-amine]	11.6%	100%	
CC(=O)N1CCN(c2ccc(OC[C@H]3CO[C@](Cn4ccnc4)(c4ccc(Cl)cc4Cl)O3)cc2)CC1 [KETOCONAZOLE, 1-[4-(4-{[(2R,4S)-2-(2,4-dichlorophenyl)-2-(1H-imidazol-1-ylmethyl)-1,3-dioxolan-4-yl]methoxy}phenyl)piperazin-1-yl]ethan-1-one]	2.1%	100%	EC50 ([1]; Table S2, amastigotes): 0.3 nM; EC50 [1]: 1 nM
CN1CCN(CCCN2c3ccccc3Sc3ccc(C(F)(F)F)cc32)CC1 [TRIFLUOPERAZINE, 10-[3-(4-methylpiperazin-1-yl)propyl]-2-(trifluoromethyl)-10H-phenothiazine]	20.4%	94.7%	
CCCC(C(=O)OCCN(CC)CC)(c1ccccc1)c1ccccc1 [PROADIFEN, 2-(diethylamino)ethyl 2,2-diphenylpentanoate]	2.1%	100%	
CCN(CC)CCOc1ccc2c(c1)C(=O)c1cc(OCCN(CC)CC)ccc1-2 [TILORONE, 2,7-bis[2-(diethylamino)ethoxy]-9H-fluoren-9-one]	7.8%	89%	
1-methyl-9H-pyrido[3,4-b]indol-7-ol hydrochloride [HARMOL]			T. cruzi % growth @ 10 uM (Amastigotes) ([1]; 10 uM, Table S2): 4.4%; Mammalian (3T3) cell % growth at 10 uM ([2]; 10 uM, Table S2): 71.4%
CC(=O)OC1(C(C)=O)CCC2C3C=C(Cl)C4=CC(=O)CCC4(C)C3CCC21C (stereo not drawn) [CHLORMADINONE ACETATE, 14-acetyl-8-chloro-2,15-dimethyl-5-oxotetracyclo[8.7.0.0^{2,7}.0^{11,15}]heptadeca-6,8-dien-14-yl acetate]	9.7%	97.4%	
CCN(CCO)CCCC(C)Nc1ccnc2cc(Cl)ccc12 (stereo not drawn) [HYDROXYCHLOROQUINE SULFATE, 2-({4-[(7-chloroquinolin-4-yl)amino]pentyl}(ethyl)amino)ethan-1-ol; sulfuric acid]			activity at 10 µM ([1]; 10 uM, Table S1): 0.1%; EC50 ([1]; Table S2, amastigotes): 4640 nM; activity at 10 µM ([2]; 10 uM, Table S1): 100%
COc1ccc2c(c1)OC[C@@H](Cc1ccc(OC)c(OC)c1)[C@@H]2O [3-DESHYDRO[…] ETHER]	24.9%	80.4%	
COc1c(C)c2c(c(O)c1CC=C(C)CCC(=O)O)C(=O)OC2 [MYCOPHENOLIC ACID, 6-(4-hydroxy-6-methoxy-7-methyl-3-oxo-1,3-dihydro-2-benzofuran-5-yl)-4-methylhex-4-enoic acid]	12.2%	97.2%	EC50 ([1]; Table S2, amastigotes): 320 nM
C#C[C@]1(O)CC[C@H]2[C@@H]3CCC4=Cc5oncc5C[C@]4(C)[C@H]3CC[C@@]21C [DANAZOL, (1S,2R,13R,14S,17R,18S)-17-ethynyl-2,18-dimethyl-7-oxa-6-azapentacyclo[11.7.0.0^{2,10}.0^{4,8}.0^{14,18}]icosa-4(8),5,9-trien-17-ol]	0.9%	90.2%	EC50 ([1]; Table S2, amastigotes): 6970 nM
O=c1cc(-c2ccccc2)oc2c(O)c(O)ccc12 [7,8-DIHYDROXYFLAVONE, 7,8-dihydroxy-2-phenyl-4H-chromen-4-one]	1.3%	72.6%	
CN(C)CCCN1c2ccccc2Sc2ccc(Cl)cc21 [CHLORPROMAZINE, [3-(2-chloro-10H-phenothiazin-10-yl)propyl]dimethylamine]	14.2%	99.3%	
CC1(C)C(=O)C=CC2(C)C1CC(=O)C1(C)C2CCC2(C)C(c3ccoc3)OC(=O)C3OC321 (stereo not drawn) [DEACETOXY-7-OXOGEDUNIN, 7-(furan-3-yl)-1,8,12,16,16-pentamethyl-3,6-dioxapentacyclo[9.8.0.0^{2,4}.0^{2,8}.0^{12,17}]nonadec-13-ene-5,15,19-trione]	4.9%	75.8%	
Cc1[nH]c2ccccc2c1CN(C)C [2-METHYL GRAMINE]	20.8%	86.9%	
COc1cc2c(cc1OC)-c1cc3ccc(OC)c(OC)c3c[n+]1CC2.[Cl-] [PALMATINE, 3,4,10,11-tetramethoxy-7,8-dihydro-6000000l^5-azatetraphen-6-ylium l^3-chloridyl]			T. cruzi % growth @ 10 uM (Amastigotes) ([1]; 10 uM, Table S2): 8.1% and 11.5%; Mammalian (3T3) cell % growth at 10 uM ([2]; 10 uM, Table S2): 100.0% and 95.9%
CSc1ccc2c(c1)C(N1CCN(C)CC1)Cc1ccccc1S2 (stereo not drawn) [METHIOTHEPIN, (2Z)-but-2-enedioic acid; 1-methyl-4-[6-(methylsulfanyl)-2-thiatricyclo[9.4.0.0^{3,8}]pentadeca-1(15),3,5,7,11,13-hexaen-9-yl]piperazine]	4.4%	69.6%	
CC(=O)OC1c2c(ccc3ccc(=O)oc23)OC(C)(C)C1OC(=O)CC(C)C (stereo not drawn) [DIHYDROSAMIDIN, 14-(acetyloxy)-12,12-dimethyl-4-oxo-3,11-dioxatricyclo[8.4.0.0^{2,7}]tetradeca-1(10),2(7),5,8-tetraen-13-yl 3-methylbutanoate]	10.9%	81.2%	
CC(Cc1cccc(C(F)(F)F)c1)NCCOC(=O)c1ccccc1 (stereo not drawn) [BENFLUOREX, 2-({1-[3-(trifluoromethyl)phenyl]propan-2-yl}amino)ethyl benzoate]	21.6%	96.6%	
CC(C)CC1C(=O)N2CCCC2C2(O)OC(NC(=O)C3C=C4c5cccc6[nH]c(Br)c(c56)CC4N(C)C3)(C(C)C)C(=O)N12 (stereo not drawn) [BROMOCRIPTINE MESYLATE, 10-bromo-N-[2-hydroxy-7-(2-methylpropyl)-5,8-dioxo-4-(propan-2-yl)-3-oxa-6,9-diazatricyclo[7.3.0.0^{2,6}]dodecan-4-yl]-6-methyl-6,11-diazatetracyclo[7.6.1.0^{2,7}.0^{12,16}]hexadeca-1(15),2,9,12(16),13-pentaene-4-carboxamide; methanesulfonic acid]	2%	92.1%	
CC(C1OC(C)(C)C(O)C1O)C1CCC2(C)C3=CCC4C(C)(C)C(=O)CCC4(C)C3CCC12C (stereo not drawn) [ODORATONE, 14-[1-(3,4-dihydroxy-5,5-dimethyloxolan-2-yl)ethyl]-2,6,6,11,15-pentamethyltetracyclo[8.7.0.0^{2,7}.0^{11,15}]heptadec-9-en-5-one]	9.9%	92.7%	
C=C(C)C1CCC2(CO)CCC3(C)C(CCC4C5(C)CCC(O)C(C)(C)C5CCC43C)C12 (stereo not drawn) [BETULIN, 5-(hydroxymethyl)-1,2,14,18,18-pentamethyl-8-(prop-1-en-2-yl)pentacyclo[11.8.0.0^{2,10}.0^{5,9}.0^{14,19}]henicosan-17-ol]	9.7%	100%	
CC(=O)OC[C@H]1O[C@@H](Oc2cc(OC(C)=O)c3c(=O)cc(-c4ccc(OC(C)=O)cc4)oc3c2)[C@H](OC(C)=O)[C@@H](OC(C)=O)[C@@H]1OC(C)=O [COSMOSIIN HEXAACETATE]	12.9%	100%	
COC(=O)C[C@H]1C(C)(C)[C@@H](O)[C@@H]2CC3=C4CC(O)O[C@@H](c5ccoc5)[C@]4(C)CCC3[C@@]1(C)C2=O (stereo partly drawn) [3,16-DIDEOXYMEXICANOLIDE-3beta-DIOL]	22.1%	99.8%	
CC(=O)OC1CC2C(C)(C)C(=O)C3OC3C2(C)C2CCC3(C)C(c4ccoc4)OC(=O)C4OC43C12C (stereo not drawn) [EPOXYGEDUNIN, 7-(furan-3-yl)-1,8,12,17,17-pentamethyl-5,16-dioxo-3,6,14-trioxahexacyclo[9.9.0.0^{2,4}.0^{2,8}.0^{12,18}.0^{13,15}]icosan-20-yl acetate]	4.4%	73.4%	
